Laboratory results reported in patent publication US11051515B2, “3-acyl-benzamides and their use as herbicides” (Bayer Aktiengesellschaft, priority 2017, dated 2021).

Legend:
ALOMY [1] = test: Pre-emergence action against ALOMY; type: in vivo, Alopecurus myosuroides; details: Alopecurus myosuroides, 504 h; dosage 320 g/ha; pre-emergence; scored visually after 3 weeks vs untreated controls; 100% = plants have died, 0% = like control plants; read-out: Pre-emergence action against ALOMY (herbicidal activity in percent)
Summary of the method: (§1)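 Seeds sown in sandy loam in wood-fiber pots and covered with soil. Greenhouse growth; visual damage scored after 3 weeks versus untreated controls (100% = dead, 0% = like control).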

AVEFA [2] = test: Pre-emergence action against AVEFA; type: in vivo, Avena fatua; details: Avena fatua, 504 h, dosage 320 g/ha, scored visually after 3 weeks vs untreated controls, read-out: Pre-emergence action against AVEFA (herbicidal activity)
Summary of the method: as §1

CYPES [3] = test: Pre-emergence action against CYPES; type: in vivo, Cyperus esculentus; details: Cyperus esculentus, 504 h; pre-emergence, dosage 320 g/ha, scored visually after 3 weeks vs untreated controls; read-out: Pre-emergence action against CYPES (herbicidal activity)
Summary of the method: as §1

ECHCG [4] = test: Pre-emergence action against ECHCG; type: in vivo, Echinochloa crus-galli; details: Echinochloa crus-galli, 504 h; pre-emergence, dosage 320 g/ha, scored visually after 3 weeks vs untreated controls; read-out: Pre-emergence action against ECHCG (herbicidal activity)
Summary of the method: as §1

LOLMU [5] = test: Pre-emergence action against LOLMU; type: in vivo, Lolium multiflorum; details: Lolium multiflorum, 504 h, dosage 320 g/ha, scored visually after 3 weeks vs untreated controls, read-out: Pre-emergence action against LOLMU (herbicidal activity)
Summary of the method: as §1

SETVI [6] = test: Pre-emergence action against SETVI; type: in vivo, Setaria viridis; details: Setaria viridis, 504 h; pre-emergence, dosage 320 g/ha, scored visually after 3 weeks vs untreated controls; read-out: SETVI (Table B8, pre-emergence herbicidal activity)
Summary of the method: as §1

ABUTH [7] = test: Pre-emergence action against ABUTH; type: in vivo, Abutilon theophrasti; details: Abutilon theophrasti, 504 h; pre-emergence, dosage 320 g/ha, scored visually after 3 weeks vs untreated controls; read-out: Pre-emergence action against ABUTH (herbicidal activity)
Summary of the method: as §1

AMARE = test: Pre-emergence action against AMARE; type: in vivo, Amaranthus retroflexus; details: Amaranthus retroflexus, 504 h; pre-emergence, dosage 320 g/ha, scored visually after 3 weeks vs untreated controls; read-out: Pre-emergence action against AMARE (herbicidal activity)
Summary of the method: as §1

MATIN [8] = test: Pre-emergence action against MATIN; type: in vivo, Matricaria inodora; details: Tripleurospermum inodorum, 504 h; Dosage 320 g/ha, pre-emergence
Summary of the method: as §1

POLCO [9] = test: Pre-emergence action against POLCO; type: in vivo, Polygonum convolvulus; details: Fallopia convolvulus, 504 h; Dosage 320 g/ha, pre-emergence
Summary of the method: as §1

STEME [10] = test: Pre-emergence action against STEME; type: in vivo, Stellaria media; details: Stellaria media, 504 h; Dosage 320 g/ha, pre-emergence
Summary of the method: as §1

VIOTR [11] = test: Pre-emergence action against VIOTR; type: in vivo, Viola tricolor; details: Viola tricolor, 504 h; Dosage 320 g/ha, pre-emergence
Summary of the method: as §1

VERPE [12] = test: Pre-emergence action against VERPE; type: in vivo, Veronica persica; details: Veronica persica, 504 h; Dosage 320 g/ha, pre-emergence
Summary of the method: as §1

ALOMY [13] = test: Post-emergence action against ALOMY; type: in vivo, Alopecurus myosuroides; details: Alopecurus myosuroides, 504 h; Dosage 80 g/ha, post-emergence
Summary of the method: (§2)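 Post-emergence foliar spray on greenhouse plants at the one-leaf stage, using wettable-powder or emulsion-concentrate formulations in water (600 to […], plus 0.2% wetting agent). Damage scored by eye roughly 3 weeks later against untreated plants: 0% = like control, 100% = dead.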

AVEFA [14] = test: Post-emergence action against AVEFA; type: in vivo, Avena fatua; details: Avena fatua, 504 h; post-emergence, dosage 80 g/ha, visual assessment about 3 weeks after treatment vs untreated controls; read-out: Post-emergence action against AVEFA (herbicidal action in percent)
Summary of the method: as §2

CYPES [15] = test: Post-emergence action against CYPES; type: in vivo, Cyperus esculentus; details: Cyperus esculentus, 504 h; post-emergence, dosage 80 g/ha, visual assessment about 3 weeks after treatment vs untreated controls; read-out: Post-emergence action against CYPES (herbicidal action in percent)
Summary of the method: as §2

ECHCG [16] = test: Post-emergence action against ECHCG; type: in vivo, Echinochloa crus-galli; details: Echinochloa crus-galli, 504 h; post-emergence, dosage 80 g/ha, visual assessment about 3 weeks after treatment vs untreated controls; read-out: Post-emergence action against ECHCG (herbicidal action in percent)
Summary of the method: as §2

LOLMU [17] = test: Post-emergence action against LOLMU; type: in vivo, Lolium multiflorum; details: Lolium multiflorum, 504 h, dosage 80 g/ha, visual assessment about 3 weeks after treatment vs untreated controls, read-out: Post-emergence action against LOLMU (herbicidal action in percent)
Method: Seeds of monocotyledonous and dicotyledonous weed and crop plants are laid out in sandy loam soil in wood-fiber pots, covered with soil and cultivated in a greenhouse under good growth conditions. 2 to 3 weeks after sowing, the test plants are treated at the one-leaf stage. The compounds of the invention, formulated in the form of wettable powders (WP) or as emulsion concentrates (EC), are then sprayed onto the green parts of the plants in the form of an aqueous suspension or emulsion at a water application rate equating to […], with addition of 0.2% wetting agent. After the test plants have been left to stand in the greenhouse under optimal growth conditions for about 3 weeks, the action of the preparations is assessed visually in comparison to untreated controls (herbicidal action in percent (%): 100% activity=the plants have died, 0% activity=like control plants). […] At the same time, inventive compounds leave Gramineae crops such as barley, wheat, rye, millet/Sorghum, corn or rice virtually undamaged when applied post-emergence, even at high active ingredient dosages. In addition, some substances are also harmless to dicotyledonous crops such as soya, cotton, oilseed rape, sugar beet or potatoes. Some of the compounds according to the invention have high selectivity and are therefore suitable for controlling unwanted vegetation in agricultural crops by the post-emergence method. The data of Tables B18 to B34 below illustrate, in an exemplary manner, the […] herbicidal action of the compounds according to the invention, the herbicidal activity being stated in percent.

SETVI [18] = test: Post-emergence action against SETVI; type: in vivo, Setaria viridis; details: Setaria viridis, 504 h; post-emergence, dosage 80 g/ha, visual assessment about 3 weeks after treatment vs untreated controls; read-out: Post-emergence action against SETVI (herbicidal action in percent)
Summary of the method: as §2

ABUTH [19] = test: Post-emergence action against ABUTH; type: in vivo, Abutilon theophrasti; details: Abutilon theophrasti, 504 h; post-emergence, dosage 80 g/ha, visual assessment about 3 weeks after treatment vs untreated controls; read-out: Post-emergence action against ABUTH (herbicidal action in percent)
Summary of the method: as §2

MATIN [20] = test: Post-emergence action against MATIN; type: in vivo, Matricaria inodora; details: Tripleurospermum inodorum, 504 h; post-emergence, dosage 80 g/ha, visual assessment about 3 weeks after treatment vs untreated controls; read-out: Post-emergence action against MATIN (herbicidal action in percent)
Summary of the method: as §2

PHBPU = test: Post-emergence action against PHBPU; type: in vivo, Pharbitis purpurea; details: Ipomoea purpurea, 504 h; post-emergence, dosage 80 g/ha
Summary of the method: as §2

POLCO [21] = test: Post-emergence action against POLCO; type: in vivo, Polygonum convolvulus; details: Fallopia convolvulus, 504 h; post-emergence, dosage 80 g/ha
Summary of the method: as §2

STEME [22] = test: Post-emergence action against STEME; type: in vivo, Stellaria media; details: Stellaria media, 504 h; post-emergence, dosage 80 g/ha
Summary of the method: as §2

VIOTR [23] = test: Post-emergence action against VIOTR; type: in vivo, Viola tricolor; details: Viola tricolor, 504 h; post-emergence, dosage 80 g/ha
Summary of the method: as §2

VERPE [24] = test: Post-emergence action against VERPE; type: in vivo, Veronica persica; details: Veronica persica, 504 h, dosage 80 g/ha
Summary of the method: as §2

`CC(=O)c1c(Cl)ccc(C(=O)Nc2nnnn2C)c1Cl` [1-114] gave a pest or weed control at 320 g/ha (ALOMY [1]) of 90%, a pest or weed control at 320 g/ha (AVEFA [2]) of 100% and a pest or weed control at 320 g/ha (CYPES [3]) of 100%. The pest or weed control at 320 g/ha (ECHCG [4]) was 100%, the pest or weed control at 320 g/ha (LOLMU [5]) was 100% and the pest or weed control at 320 g/ha (SETVI [6]) was 100%. For the same compound, the pest or weed control at 320 g/ha (ABUTH [7]) was 100%, the pest or weed control at 320 g/ha (AMARE) was 100% and the pest or weed control at 320 g/ha (MATIN [8]) was 100%. For the same compound, the pest or weed control at 320 g/ha (POLCO [9]) was 90%, the pest or weed control at 320 g/ha (STEME [10]) was 90% and the pest or weed control at 320 g/ha (VIOTR [11]) was 100%. The pest or weed control at 320 g/ha (VERPE [12]) was 100%, the pest or weed control at 80 g/ha (ALOMY [13]) was 80% and the pest or weed control at 80 g/ha (AVEFA [14]) was 90%. The pest or weed control at 80 g/ha (CYPES [15]) was 80%, the pest or weed control at 80 g/ha (ECHCG [16]) was 90% and the pest or weed control at 80 g/ha (LOLMU [17]) was 100%. For the same compound, the pest or weed control at 80 g/ha (SETVI [18]) was 80%, the pest or weed control at 80 g/ha (ABUTH [19]) was 80% and the pest or weed control at 80 g/ha (MATIN [20]) was 80%. For the same compound, the pest or weed control at 80 g/ha (PHBPU) was 90%, the pest or weed control at 80 g/ha (POLCO [21]) was 90% and the pest or weed control at 80 g/ha (STEME [22]) was 100%. For the same compound, the pest or weed control at 80 g/ha (VIOTR [23]) was 90% and the pest or weed control at 80 g/ha (VERPE [24]) was 100%.
